In US5622962A, “5α-reductase inhibitors” (priority 1995, dated 1997):

What was measured:
[1] = target: T1, Type I 5α-Reductase from Human Scalp (Homo sapiens, UniProt P18405); assay: Human Type I 5α-reductase assay (conversion of [3H]-testosterone to 5α-reduced metabolites); type: biochemical; conditions: pH 7.5, 0.3 μM; 50 nM [3H]-testosterone, pH 7.5, 25°, 180 min; compared to control reaction mixtures; read-out: percent inhibition of Type I AR
T1 construct: Scalp punch biopsies from graft recipient sites were obtained from human hair transplant procedures; from tissue; host or cells: human scalp punch biopsies (hair transplant graft recipient sites), homogenate, 100,000×g pellet
T1 sequence (P18405 1-259): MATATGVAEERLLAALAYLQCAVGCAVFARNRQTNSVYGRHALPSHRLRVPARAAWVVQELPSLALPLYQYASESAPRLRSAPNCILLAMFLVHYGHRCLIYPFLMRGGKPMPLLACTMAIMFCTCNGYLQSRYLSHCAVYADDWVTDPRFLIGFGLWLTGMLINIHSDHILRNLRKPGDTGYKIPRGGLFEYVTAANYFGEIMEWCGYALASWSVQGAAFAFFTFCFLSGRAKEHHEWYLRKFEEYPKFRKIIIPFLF

[2] = target: T2, Type II 5α-Reductase from Human Prostate (Homo sapiens, UniProt P31213); assay: Human Type II 5α-reductase assay (conversion of [3H]-testosterone to 5α-reduced metabolites); type: biochemical; conditions: pH 5.5, 0.3 μM; sodium acetate pH 5.5, 25°, 30 min; compared to control reaction mixtures; read-out: percent inhibition of Type II AR
T2 construct: The same procedure as above was used for preparations using tissue from prostate surgery; from tissue; host or cells: human prostate tissue from surgery, homogenate, 100,000×g pellet
T2 sequence (P31213 1-254): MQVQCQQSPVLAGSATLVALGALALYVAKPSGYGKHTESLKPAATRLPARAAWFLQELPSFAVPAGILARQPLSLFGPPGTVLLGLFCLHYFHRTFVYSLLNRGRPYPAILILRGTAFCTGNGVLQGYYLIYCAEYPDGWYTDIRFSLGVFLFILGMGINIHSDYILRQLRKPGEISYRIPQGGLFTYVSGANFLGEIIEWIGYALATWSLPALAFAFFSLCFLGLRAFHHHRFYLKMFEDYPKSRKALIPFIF

| Structure (SMILES) | inhibition at 0.3 µM [1] | inhibition at 0.3 µM [2] |
| --- | --- | --- |
| CN1C(=O)CC[C@]2(C)c3ccc(-c4cc(C(F)(F)F)ccc4F)cc3CC[C@@H]12 [Example 211, (+)-(4aR)-(10bR)-4-methyl-8-(2-fluoro-5-trifluoromethylphenyl)-10b-methyl-1,2,3,4,4a,5,6,10b-octahydrobenzo[f]-quinolin-3-one quinolin-3-one] | 70% | 29% |
| CN1C(=O)CC[C@]2(C)c3ccc(Sc4ccc([N+](=O)[O-])cn4)cc3CC[C@@H]12 [Example 166, (+)-(4aR)-(10bR)-4-methyl-8-(5-nitro-2-pyridinylthio)-10b-methyl-1,2,3,4,4a,5,6,10b-octahydrobenzo[f]quinolin-3-one] | 50% | 49% |
| CN1C(=O)CC[C@]2(C)c3ccc(-c4ccc(NC(=O)C(C)(C)C)c5ccccc45)cc3CC[C@@H]12 [Example 32, (+)-(4aR)-(10bR)-4-methyl-8-(1-[4-t-butylcarbonylamino]naphthyl)-10b-methyl-1,2,3,4,4a,5,6,10b-octahydrobenzo[f]-quinolin-3-one] | 71% | 18% |
| C[C@]12CCC(=O)N[C@@H]1CCc1cc(Sc3cccc4cccnc34)ccc12 [Example 20, (+)-(4aR)-(10bR)-8-(8-quinolinylthio)-10b-methyl-1,2,3,4,4a,5,6,10b-octahydrobenzo[f]quinolin-3-one] | 22% | 48% |
| C[C@]12CCC(=O)N[C@@H]1CCc1cc(Sc3ccc(F)cc3)ccc12 [Example 14, (+)-(4aR)-(10bR)-8-(4-fluorophenylthio)-10b-methyl-1,2,3,4,4a,5,6,10b-octahydrobenzo[f]quinolin-3-one] | 37% | 25% |
| CN1C(=O)CC[C@]2(C)c3ccc(-c4c(F)cc(F)cc4F)cc3CC[C@@H]12 [Example 230, (+)-(4aR)-(10bR)-4-methyl-8-(2,4,6-trifluorophenyl)-10b-methyl-1,2,3,4,4a,5,6,10b-octahydrobenzo[f]quinolin-3-one] | 86% | 29% |
| Cc1ccc(S(=O)(=O)n2ccc3cc(-c4ccc5c(c4)CC[C@H]4N(C)C(=O)CC[C@]54C)ccc32)cc1 [Example 236, (+)-(4aR)-(10bR)-4-methyl-8-(1-p-toluenesulfonylindol-5-yl)-10b-methyl-1,2,3,4,4a,5,6,10b-octahydrobenzo[f]quinolin-3-one] | 84% | 67% |
| C[C@]12CCC(=O)N[C@@H]1CCc1cc(Sc3ccc(Cl)cc3)ccc12 [Example 5, (+)-(4aR)-(10bR)-8-(4-chlorophenylthio)-10b-methyl-1,2,3,4,4a,5,6,10b-octahydrobenzo [f]quinolin-3-one] | 44% | 0% |
| CN1C(=O)CC[C@]2(C)c3ccc(C(=O)OC(c4ccccc4)c4ccccc4)cc3CC[C@@H]12 [Example 147, (4aR)-(10bR)-4,10b-dimethyl-8-diphenylmethoxycarbonyl-1,2,3,4,4a,5,6,10b-octahydrobenzo[f]quinolin-3-one] | 35% | 83% |
| COc1ccccc1Sc1ccc2c(c1)CC[C@H]1N(C)C(=O)CC[C@]21C [Example 104, (+)-(4aR)-(10bR)-4,10b-dimethyl-8-(2-methoxyphenylthio)-1,2,3,4,-4a,5,6,10b-octahydrobenzo[f]quinolin-3-one] | 89% | 41% |
| CN1C(=O)CC[C@]2(C)c3ccc(C(=O)Nc4ccccc4)cc3CC[C@@H]12 [Example 143, (+)-(4aR)-(10bR)-4-methyl-8-(phenylcarboxamido)-10b-methyl-1,2,3,4,4a,5,6,10b-octahydrobenzo[f]quinolin-3-one] | 63% | 18% |
| CN1C(=O)CC[C@]2(C)c3ccc(Sc4ccc(-c5ccccc5)nn4)cc3CC[C@@H]12 [Example 171, (+)-(4aR)-(10bR)-4-methyl-8-(6-phenyl-3-pyridazinylthio)-10b-methyl-1,2,3,4,4a,5,6,10b-octahydrobenzo[f]quinolin-3-one] | 43% | 63% |
| CN1C(=O)CC[C@]2(C)c3ccc(SCc4nc5ccccc5s4)cc3CC[C@@H]12 [Example 192, (+)-(4aR)-(10bR)-8-(2-benzothiazolylmethylthio)-4,10b-dimethyl-1,2,3,4,4a,5,6,10b-octahydrobenzo[f]quinoline-3-one] | 80% | 33% |

Now from value to compound:

| inhibition at 0.3 µM [1] | inhibition at 0.3 µM [2] | Structure (SMILES) |
| --- | --- | --- |
| 85% | 31% | CN1C(=O)CC[C@]2(C)c3ccc(-c4cc5ccccc5s4)cc3CC[C@@H]12 [Example 82, (+)-(4aR)-(10bR)-4-methyl-8-(2-benzothienyl)-10b-methyl-1,2,3,4,4a,5,6,10b-octahydrobenzo-[f]quinolin-3-one] |
| 68% | 10% | CN1C(=O)CC[C@]2(C)c3ccc(-c4cc(Cl)cc(Cl)c4)cc3CC[C@@H]12 [Example 52, (+)-(4aR)-(10bR)-4-methyl-8-(3,5-dichlorophenyl)-10b-methyl-1,2,3,4,4a,5,6,10b-octahydrobenzo[f]quinolin-3-one] |
| 13% | 5% | CN1C(=O)CC[C@]2(C)c3ccc(-c4cccc(C(=O)NC(C)(C)C)c4)cc3CC[C@@H]12 [Example 34, (+)-(4aR)-(10bR)-4-methyl-8-(3-t-butylcarboxamidophenyl)-10b-methyl-1,2,3,4,4a,5,6,10b-octahydrobenzo[f]quinolin-3-one] |
| 67% | 69% | CN1C(=O)CC[C@]2(C)c3ccc(Sc4nc5ccccc5o4)cc3CC[C@@H]12 [Example 150, (+)-(4aR)-(10bR)-4-methyl-8-(2-benzoxazolylthio)-10b-methyl-1,2,3,4,4a,5,6,10b-octahydrobenzo[f]quinolin-3-one] |
| 80% | 47% | CN1C(=O)CC[C@]2(C)c3ccc(-c4ccc5ccccc5c4)cc3CC[C@@H]12 [Example 71, (+)-(4aR)-(10bR)-4-methyl-8-(2-naphthyl)-10b-methyl-1,2,3,4,4a,5,6,10b-octahydrobenzo[f]quinolin-3-one] |
| 84% | 35% | CN1C(=O)CC[C@]2(C)c3ccc(-c4ccc(Cl)s4)cc3CC[C@@H]12 [Example 218, (+)-(4aR)-(10bR)-4-methyl-8-(5-chloro-2-thienyl)-10b-methyl-1,2,3,4,4a,5,6,10b-octahydrobenzo[f]quinolin-3-one] |
| 51% | 32% | CN1C(=O)CC[C@]2(C)c3ccc(-c4ccc5ncccc5c4)cc3CC[C@@H]12 [Example 244, (+)-(4aR)-(10bR)-4-methyl-8-(6-quinolinyl)-10b-methyl-1,2,3,4,4a,5,6,10b-octahydrobenzo[f]quinolin-3-one] |
| 93% | 37% | CSc1ccc(-c2ccc3c(c2)CC[C@H]2N(C)C(=O)CC[C@]32C)cc1 [Example 120, (+)-(4aR)-(10bR)-4-methyl-8-(4-methylthiophenyl)-10b-methyl-1,2,3,4,4a,5,6,10b-octahydrobenzo[f]quinolin-3-one] |
| 97% | 25% | CN1C(=O)CC[C@]2(C)c3ccc(-c4cc(F)cc(F)c4)cc3CC[C@@H]12 [Example 227, (+)-(4aR)-(10bR)-4-methyl-8-(3,5-difluorophenyl)-10b-methyl-1,2,3,4,4a,5,6,10b-octahydrobenzo[f]quinolin-3-one] |
